The values below are quoted from earlier work in patent publication US20120201914A1, “Method and Composition for Improving Animal Oral Health” (priority 2011, published 2012).

This data set concerns various oral pathogens, such as S. mutans, C. albicans, A. actinomycetemcomitans, F. nucleatum, and P. gingivalis. To be noted: against various oral pathogens; recent studies.

For the molecule `CC/C=C\C/C=C\C/C=C\CCCCCCCC(=O)O` [ALA, α-linolenic acid], the antibacterial activity entry is on record as “antibacterial activities”.

For the molecule `CC/C=C\C/C=C\C/C=C\CCCCCCCC(=O)OCC` [ALA-EE], the antibacterial activity result is “antibacterial activities”. With `CC/C=C\C/C=C\C/C=C\CCCCCCCC(=O)OC` [ALA-ME], the antibacterial activity entry was “antibacterial activities”. In the case of `CC/C=C\C/C=C\C/C=C\C/C=C\C/C=C\C/C=C\CCC(=O)OCC` [DHA-EE], the antibacterial activity result is “antibacterial activities”.

Regarding `CC/C=C\C/C=C\C/C=C\C/C=C\C/C=C\C/C=C\CCC(=O)OC` [DHA-ME], the antibacterial activity result is recorded as “antibacterial activities”. With `CC/C=C\C/C=C\C/C=C\C/C=C\C/C=C\CCCC(=O)OCC` [EPA-EE], the antibacterial activity entry is “antibacterial activities”. Regarding `CC/C=C\C/C=C\C/C=C\C/C=C\C/C=C\CCCC(=O)OC` [EPA-ME], the antibacterial activity result is “antibacterial activities”.
